Source: patent US9023789B2, “Amylin analogs and pharmaceutical compositions thereof” (Novo Nordisk A/S, priority 2012, dated 2015)
Numbered stars: 1 amine (or outer) side, 2 acyl side, 3 side chain; on linkers, the order of the positions; unused ones are H or OH. Bridge positions count the residues as written; N and C are the ends. Side chains are listed from the residue outwards. Peptide text beside a SMILES is read from it. * marks the point of attachment. C20 diacid = O=C(O)CCCCCCCCCCCCCCCCCCC(=O)*; γGlu = O=C(O)[C@H](CCC(=O)[*:2])N[*:1]; AEEA = NCCOCCOCC(=O)O

Key:
rat calcitonin receptor = target: T1, rat calcitonin receptor (Rattus norvegicus, UniProt P32214); test: ASSAY (VIII) binding to the rat calcitonin receptor; settings: Table 7, read-out: rCTR bind IC50
T1 construct: expressed in transfected cells; host or cells: BHK tk'ts 13 (transient, FuGENE 6), membranes
T1 sequence (P32214 25-479 isoform P32214-2 limits assumed): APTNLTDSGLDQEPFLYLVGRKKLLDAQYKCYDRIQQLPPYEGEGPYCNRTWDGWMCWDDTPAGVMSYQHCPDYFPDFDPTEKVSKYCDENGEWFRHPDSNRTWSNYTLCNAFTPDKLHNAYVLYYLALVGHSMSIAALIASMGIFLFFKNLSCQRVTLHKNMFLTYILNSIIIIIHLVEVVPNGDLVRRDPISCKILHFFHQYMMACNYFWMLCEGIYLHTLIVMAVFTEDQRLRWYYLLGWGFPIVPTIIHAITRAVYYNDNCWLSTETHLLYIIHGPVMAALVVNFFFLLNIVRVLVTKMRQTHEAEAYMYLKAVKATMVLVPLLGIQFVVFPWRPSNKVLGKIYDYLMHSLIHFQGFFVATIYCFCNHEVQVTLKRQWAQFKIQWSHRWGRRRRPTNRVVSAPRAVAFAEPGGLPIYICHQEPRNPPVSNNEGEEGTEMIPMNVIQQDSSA
In short: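 BHK tk′ts 13 cells, transient rat calcitonin receptor transfection; DMEM + 10% FBS; harvest ~48 h post-transfection; membrane prep.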

[1] = target: T2, rat amylin receptor (rat calcitonin receptor + rat RAMP 3) (Rattus norvegicus, UniProt P32214+Q9JJ73); test: ASSAY (VI) binding to the rat amylin receptor; settings: for IC50: binding to rat amylin receptor, read-out: rAmylin-R bind IC50
T2 construct: expressed in transfected cells; host or cells: BHK tk'ts 13 (transient, FuGENE 6), membranes
T2 sequence (P32214 25-479 isoform P32214-2 limits assumed): T1 sequence (P32214 25-479 isoform P32214-2 limits assumed)
T2 sequence (Q9JJ73 23-147 partner): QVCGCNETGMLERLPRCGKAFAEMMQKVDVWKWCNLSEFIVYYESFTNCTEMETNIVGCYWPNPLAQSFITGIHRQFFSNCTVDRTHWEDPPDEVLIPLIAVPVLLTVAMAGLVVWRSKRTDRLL
In short: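 The cell-membrane assay assessed binding at the rat amylin receptor. BHK tk′ts 13 cells were transfected transiently with rat calcitonin receptor, with FuGENE® 6 (Roche) as the transfection reagent, used per the manufacturer's recommendations. Approximately 48 hours after transfection the cells were harvested, and membranes were prepared for measuring binding.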

[2] = target: T3, human amylin 3(a) receptor (human calcitonin receptor + RAMP-3) in BHK570 cells (Homo sapiens, UniProt O60896+P30988); test: ASSAY (II)a functional assay, human amylin receptor (CRE luciferase); format: cell-based
T3 construct: expressed in transfected cells
In short: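 Read-out: CRE-driven luciferase luminescence, single photon counting, after 30 min at room temperature with LucLite. BHK cells expressed calcitonin receptor alone or with RAMP-3 (amylin 3(a)). Cells were stimulated 3 h at 37° C in DMEM, 10% FBS, 10 mM Hepes, pH 7.4.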

[3] = target: T4, human amylin receptor (membranes from Amylin 3(a)/CRE-luc cells) (Homo sapiens, UniProt O60896+P30988); test: ASSAY (V) binding to the human amylin receptor (SPA, 125I-rat amylin);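 further: competition binding of cell membranes (35 ng/µL) mixed with SPA beads in 384-well plates at 40 µL total volume, read by scintillation counting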
T4 construct: expressed in transfected cells
T4 sequence (P30988 25-474): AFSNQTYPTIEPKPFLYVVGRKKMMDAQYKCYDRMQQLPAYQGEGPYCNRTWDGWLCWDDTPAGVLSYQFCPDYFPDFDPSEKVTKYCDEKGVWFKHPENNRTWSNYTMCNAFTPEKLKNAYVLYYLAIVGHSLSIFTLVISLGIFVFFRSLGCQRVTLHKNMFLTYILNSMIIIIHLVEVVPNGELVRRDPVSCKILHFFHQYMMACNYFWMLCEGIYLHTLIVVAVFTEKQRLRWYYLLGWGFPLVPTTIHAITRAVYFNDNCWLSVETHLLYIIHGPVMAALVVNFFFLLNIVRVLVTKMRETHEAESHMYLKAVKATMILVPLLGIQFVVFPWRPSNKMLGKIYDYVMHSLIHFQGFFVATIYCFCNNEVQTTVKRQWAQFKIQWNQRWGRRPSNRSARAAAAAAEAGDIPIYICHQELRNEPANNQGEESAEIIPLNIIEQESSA
T4 sequence (O60896 24-148 partner): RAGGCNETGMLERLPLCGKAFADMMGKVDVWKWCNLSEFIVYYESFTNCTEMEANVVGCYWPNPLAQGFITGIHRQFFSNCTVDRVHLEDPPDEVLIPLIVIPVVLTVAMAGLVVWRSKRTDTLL

[4] = Table 7, rat binding selectivity, rCTR IC50 / rAmylin-R IC50
[5] = Table 7a (preferred compounds), rat binding selectivity, rCTR IC50 / rAmylin-R IC50
[6] = ratio of rCTR bind IC50 to rAmylin-R bind IC50
[7] = hCTR funct. EC50 divided by hAmylin-R funct. EC50
[8] = hCTR funct. EC50 over hAmylin-R funct. EC50
[9] = human functional selectivity: hCTR funct. EC50 / hAmylin-R funct. EC50
[10] = Table 5, selectivity, hCTR bind IC50 / hAmylin-R bind IC50
[11] = Table 5a, selectivity, hCTR bind IC50 / hAmylin-R bind IC50
[12] = Table 5b, selectivity, hCTR bind IC50 / hAmylin-R bind IC50
[13] = Table 5c, selectivity, hCTR bind IC50 / hAmylin-R bind IC50
[14] = Table 7, human binding selectivity, included for comparison
[15] = Table 7a (preferred compounds), human binding selectivity, included for comparison
[16] = ratio of human calcitonin receptor binding IC50 to human amylin receptor binding IC50

| Structure (SMILES) | IC50 (rat calcitonin receptor) | IC50 ([1]; Table 7) | Ratio rCT/rAmylin binding [1, 4] | Ratio rCT/rAmylin binding [1, 5] | Ratio rCT/rAmylin binding [1, 6] | Ratio hCT/hAmylin funct. [2, 7] | Ratio hCT/hAmylin funct. [2, 8] | Ratio hCT/hAmylin funct. [2, 9] | Ratio hCT/hAmylin binding [3, 10] | Ratio hCT/hAmylin binding [3, 11] | Ratio hCT/hAmylin binding [3, 12] | Ratio hCT/hAmylin binding [3, 13] | Ratio hCT/hAmylin binding [3, 14] | Ratio hCT/hAmylin binding [3, 15] | Ratio hCT/hAmylin binding [3, 16] |
| --- | --- | --- | --- | --- | --- | --- | --- | --- | --- | --- | --- | --- | --- | --- | --- |
| CC[C@H](C)[C@H](NC(=O)[C@H](C)NC(=O)CNC(=O)[C@H](Cc1ccccc1)NC(=O)[C@H](CC(N)=O)NC(=O)[C@@H]1CCCN1C(=O)[C@H](CO)NC(=O)[C@H](CO)NC(=O)[C@H](Cc1c[nH]cn1)NC(=O)[C@H](CCCNC(=N)N)NC(=O)[C@H](CC(C)C)NC(=O)[C@H](Cc1ccccc1)NC(=O)[C@H](Cc1c[nH]cn1)NC(=O)[C@H](C)NC(=O)[C@H](CC(C)C)NC(=O)[C@H](CCCNC(=N)N)NC(=O)[C@H](CCC(N)=O)NC(=O)[C@@H](NC(=O)[C@H](C)NC(=O)[C@@H]1CSSC[C@H](NC(=O)[C@@H](N)CCCCNC(=O)COCCOCCNC(=O)CC[C@H](NC(=O)CCCCCCCCCCCCCCCCCCC(=O)O)C(=O)O)C(=O)N[C@@H](CC(N)=O)C(=O)N[C@@H]([C@@H](C)O)C(=O)N[C@@H](C)C(=O)N[C@@H]([C@@H](C)O)C(=O)N1)[C@@H](C)O)C(=O)N1CCC[C@H]1C(=O)N[C@@H](CO)C(=O)N[C@@H](CO)C(=O)N[C@H](C(=O)N1CCC[C@H]1C(=O)N[C@H](C(=O)NCC(=O)N[C@@H](CO)C(=O)N[C@@H](CC(N)=O)C(=O)N[C@H](C(=O)N[C@@H](Cc1ccc(O)cc1)C(N)=O)[C@@H](C)O)C(C)C)[C@@H](C)O [Example 61] (H-K([AEEA-γGlu-C20 diacid])CNTATCATQRLAHFLRHSSPNFGAIPSSTPVGSNTY-NH2; disulfide 2-7 (inferred)) | 33.4 nM | 0.842 nM | 39.7 | 39.7 | 39.7 | 10.9 | 10.9 | 10.9 | 66.7 | 66.7 | 66.7 | 66.7 | 66.7 | 66.7 | 66.7 |
| CC[C@H](C)[C@H](NC(=O)[C@H](C)NC(=O)CNC(=O)[C@H](Cc1ccccc1)NC(=O)[C@H](CC(N)=O)NC(=O)[C@@H]1CCCN1C(=O)[C@H](CO)NC(=O)[C@H](CO)NC(=O)[C@H](Cc1c[nH]cn1)NC(=O)[C@H](CCCNC(=N)N)NC(=O)[C@H](CC(C)C)NC(=O)[C@H](Cc1ccccc1)NC(=O)[C@H](Cc1c[nH]cn1)NC(=O)[C@H](C)NC(=O)[C@H](CC(C)C)NC(=O)[C@H](CCCNC(=N)N)NC(=O)[C@H](CCC(N)=O)NC(=O)[C@@H](NC(=O)[C@H](C)NC(=O)[C@@H]1CSSC[C@H](NC(=O)[C@@H](N)CCCCNC(=O)COCCOCCNC(=O)CC[C@H](NC(=O)CCCCCCCCCCCCCCCCCCC(=O)O)C(=O)O)C(=O)N[C@@H](CC(N)=O)C(=O)N[C@@H]([C@@H](C)O)C(=O)N[C@@H](C)C(=O)N[C@@H]([C@@H](C)O)C(=O)N1)[C@@H](C)O)C(=O)N1CCC[C@H]1C(=O)N[C@@H](CO)C(=O)N[C@@H](CO)C(=O)N[C@H](C(=O)N[C@@H](CC(N)=O)C(=O)N[C@H](C(=O)NCC(=O)N1CCC[C@H]1C(=O)N[C@@H](CC(N)=O)C(=O)N[C@H](C(=O)N[C@@H](Cc1ccc(O)cc1)C(N)=O)[C@@H](C)O)C(C)C)[C@@H](C)O [Example 68] (H-K([AEEA-γGlu-C20 diacid])CNTATCATQRLAHFLRHSSPNFGAIPSSTNVGPNTY-NH2; disulfide 2-7) | 28.5 nM | 0.234 nM | 121.9 | 121.9 | 121.9 | 17.4 | 17.4 | 17.4 | 64.4 | 64.4 | 64.4 | 64.4 | 64.4 | 64.4 | 64.4 |
| CC[C@H](C)[C@H](NC(=O)[C@H](C)NC(=O)CNC(=O)[C@H](Cc1ccccc1)NC(=O)[C@H](CC(N)=O)NC(=O)[C@@H]1CCCN1C(=O)[C@H](CO)NC(=O)[C@H](CO)NC(=O)[C@H](Cc1c[nH]cn1)NC(=O)[C@H](CCCNC(=N)N)NC(=O)[C@H](CC(C)C)NC(=O)[C@H](Cc1ccccc1)NC(=O)[C@H](CCC(=O)O)NC(=O)[C@H](C)NC(=O)[C@H](CC(C)C)NC(=O)[C@H](CCCNC(=N)N)NC(=O)[C@H](CCC(N)=O)NC(=O)[C@@H](NC(=O)[C@H](C)NC(=O)[C@@H]1CSSC[C@H](NC(=O)[C@@H](N)CCCCNC(=O)CC[C@H](NC(=O)CC[C@H](NC(=O)CCCCCCCCCCCCCCCCCCC(=O)O)C(=O)O)C(=O)O)C(=O)N[C@@H](CC(N)=O)C(=O)N[C@@H]([C@@H](C)O)C(=O)N[C@@H](C)C(=O)N[C@@H]([C@@H](C)O)C(=O)N1)[C@@H](C)O)C(=O)N1CCC[C@H]1C(=O)N[C@@H](CO)C(=O)N[C@@H](CO)C(=O)N[C@H](C(=O)N[C@@H](CC(N)=O)C(=O)N[C@H](C(=O)NCC(=O)N[C@@H](CCCNC(=N)N)C(=O)N[C@@H](CC(N)=O)C(=O)N[C@H](C(=O)N[C@@H](Cc1ccc(O)cc1)C(N)=O)[C@@H](C)O)C(C)C)[C@@H](C)O [Example 88] (H-K([γGlu-γGlu-C20 diacid])CNTATCATQRLAEFLRHSSPNFGAIPSSTNVGRNTY-NH2; disulfide 2-7) | 196 nM | 2.31 nM | 84.9 | 84.9 | 84.9 | 8.5 | 8.5 | 8.5 | 46.5 | 46.5 | 46.5 | 46.5 | 46.5 | 46.5 | 46.5 |
